Data from US20110039721A1, “METHOD FOR PREDICTION ABOUT CARCINOGENICITY OF SUBSTANCE IN RODENT” (Chemicals Evaluation and Research Institute, priority 2007, published 2011).

Experiments:
rodent = conditions: classification of the substance (C+/C−); cited from earlier work
liver = conditions: classification of the substance (Cr+/Cr−); cited from earlier work
[1] = classification of the substance (M+/M−); cited from earlier work
[2] = tested on: mRNA expressed from the genes (A) to (D) in rat liver; assay: Behavior of genes (mRNA expression level, oligo-DNA microarray) in rat liver after 28-day oral administration; assay type: in vivo; conditions: for Behavior of gene caused by administration of chemical substance, Gene No. 4846 / Behavior of gene caused by administration of chemical substance, Gene No. 2026 / Behavior of gene caused by administration of chemical substance, Gene No. 4218 / Behavior of gene caused by administration of chemical substance, Gene No. 6182 / Behavior of gene caused by administration of chemical substance, Gene No. 5600: gene group (A); for Behavior of gene caused by administration of chemical substance, Gene No. 4846: Unigene No. Rn.144554; for Behavior of gene caused by administration of chemical substance, Gene No. 2026 / Behavior of gene caused by administration of chemical substance, Gene No. 4218: Unigene No. Rn.167075; for Behavior of gene caused by administration of chemical substance, Gene No. 6182: Unigene No. Rn.5834; for Behavior of gene caused by administration of chemical substance, Gene No. 5600: Unigene No. Rn.9836; for Behavior of gene caused by administration of chemical substance, Gene No. 1494 / Behavior of gene caused by administration of chemical substance, Gene No. 2045 / Behavior of gene caused by administration of chemical substance, Gene No. 2203: gene group (B); for Behavior of gene caused by administration of chemical substance, Gene No. 1494: Unigene No. Rn.1430; for Behavior of gene caused by administration of chemical substance, Gene No. 2045: Unigene No. Rn.19329; for Behavior of gene caused by administration of chemical substance, Gene No. 2203: Unigene No. Rn.21240; for Behavior of gene caused by administration of chemical substance, Gene No. 533 / Behavior of gene caused by administration of chemical substance, Gene No. 725 / Behavior of gene caused by administration of chemical substance, Gene No. 1163 / Behavior of gene caused by administration of chemical substance, Gene No. 4973 / Behavior of gene caused by administration of chemical substance, Gene No. 4095 / Behavior of gene caused by administration of chemical substance, Gene No. 1334 / Behavior of gene caused by administration of chemical substance, Gene No. 6620 / Behavior of gene caused by administration of chemical substance, Gene No. 6303 / Behavior of gene caused by administration of chemical substance, Gene No. 5878 / Behavior of gene caused by administration of chemical substance, Gene No. 1131 / Behavior of gene caused by administration of chemical substance, Gene No. 1562 / Behavior of gene caused by administration of chemical substance, Gene No. 1741 / Behavior of gene caused by administration of chemical substance, Gene No. 893 / Behavior of gene caused by administration of chemical substance, Gene No. 6026 / Behavior of gene caused by administration of chemical substance, Gene No. 154 / Behavior of gene caused by administration of chemical substance, Gene No. 1993 / Behavior of gene caused by administration of chemical substance, Gene No. 813 / Behavior of gene caused by administration of chemical substance, Gene No. 2494 / Behavior of gene caused by administration of chemical substance, Gene No. 2546 / Behavior of gene caused by administration of chemical substance, Gene No. 3776 / Behavior of gene caused by administration of chemical substance, Gene No. 3929 / Behavior of gene caused by administration of chemical substance, Gene No. 1119 / Behavior of gene caused by administration of chemical substance, Gene No. 6742 / Behavior of gene caused by administration of chemical substance, Gene No. 5634: gene group (C); for Behavior of gene caused by administration of chemical substance, Gene No. 533: Unigene No. Rn.106184; for Behavior of gene caused by administration of chemical substance, Gene No. 725: Unigene No. Rn.108075; for Behavior of gene caused by administration of chemical substance, Gene No. 1163: Unigene No. Rn.11766; for Behavior of gene caused by administration of chemical substance, Gene No. 4973: Unigene No. Rn.118529; for Behavior of gene caused by administration of chemical substance, Gene No. 4095: Unigene No. Rn.119024; for Behavior of gene caused by administration of chemical substance, Gene No. 1334 / Behavior of gene caused by administration of chemical substance, Gene No. 6620: Unigene No. Rn.120914; for Behavior of gene caused by administration of chemical substance, Gene No. 6303: Unigene No. Rn.123063; for Behavior of gene caused by administration of chemical substance, Gene No. 5878: Unigene No. Rn.143213; for Behavior of gene caused by administration of chemical substance, Gene No. 1131: Unigene No. Rn.144946; for Behavior of gene caused by administration of chemical substance, Gene No. 1562: Unigene No. Rn.14744; for Behavior of gene caused by administration of chemical substance, Gene No. 1741: Unigene No. Rn.1647; for Behavior of gene caused by administration of chemical substance, Gene No. 893: Unigene No. Rn.164817; for Behavior of gene caused by administration of chemical substance, Gene No. 6026: Unigene No. Rn.167685; for Behavior of gene caused by administration of chemical substance, Gene No. 154: Unigene No. Rn.185941; for Behavior of gene caused by administration of chemical substance, Gene No. 1993: Unigene No. Rn.18728; for Behavior of gene caused by administration of chemical substance, Gene No. 813: Unigene No. Rn.201760; for Behavior of gene caused by administration of chemical substance, Gene No. 2494: Unigene No. Rn.23969; for Behavior of gene caused by administration of chemical substance, Gene No. 2546: Unigene No. Rn.24561; for Behavior of gene caused by administration of chemical substance, Gene No. 3776: Unigene No. Rn.43232; for Behavior of gene caused by administration of chemical substance, Gene No. 3929: Unigene No. Rn.4620; for Behavior of gene caused by administration of chemical substance, Gene No. 1119: Unigene No. Rn.9757; for Behavior of gene caused by administration of chemical substance, Gene No. 6742: Unigene No. Rn.9779; for Behavior of gene caused by administration of chemical substance, Gene No. 5634: Unigene No. Rn.9862; for Behavior of gene caused by administration of chemical substance, Gene No. 5726: gene group (D), Unigene No. Rn.9939
Procedure, shortened: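 Groups of four male F344 SPF rats aged 5 weeks are gavaged once a day for 28 days with test chemical in solvent or with solvent alone at equal volume. Total RNA comes from liver taken on day 28. Fold change of 1.5 or 1/1.5 versus control, directionally consistent, defines significance.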

Row | SMILES | Carcinogenicity (rodent) | Liver carcinogenicity (liver) | Mutagenicity by Ames test [1] | Behavior of gene caused by administration of chemical substance, Gene No. 4846 [2] | Behavior of gene caused by administration of chemical substance, Gene No. 2026 [2] | Behavior of gene caused by administration of chemical substance, Gene No. 4218 [2] | Behavior of gene caused by administration of chemical substance, Gene No. 6182 [2] | Behavior of gene caused by administration of chemical substance, Gene No. 5600 [2] | Behavior of gene caused by administration of chemical substance, Gene No. 1494 [2] | Behavior of gene caused by administration of chemical substance, Gene No. 2045 [2] | Behavior of gene caused by administration of chemical substance, Gene No. 2203 [2] | Behavior of gene caused by administration of chemical substance, Gene No. 533 [2] | Behavior of gene caused by administration of chemical substance, Gene No. 725 [2] | Behavior of gene caused by administration of chemical substance, Gene No. 1163 [2] | Behavior of gene caused by administration of chemical substance, Gene No. 4973 [2] | Behavior of gene caused by administration of chemical substance, Gene No. 4095 [2] | Behavior of gene caused by administration of chemical substance, Gene No. 1334 [2] | Behavior of gene caused by administration of chemical substance, Gene No. 6620 [2] | Behavior of gene caused by administration of chemical substance, Gene No. 6303 [2] | Behavior of gene caused by administration of chemical substance, Gene No. 5878 [2] | further results
1 | Nc1cc([N+](=O)[O-])ccc1C(=O)O [TS082, 4-Nitroanthranilic acid] | C− | Cr− | M+ | − | − | − | + | − | + | − | − | + | − | − | + | + | − | − | + | − | Behavior of gene caused by administration of chemical substance, Gene No. 1131 [2]: +; Behavior of gene caused by administration of chemical substance, Gene No. 1562 [2]: +; Behavior of gene caused by administration of chemical substance, Gene No. 1741 [2]: +; Behavior of gene caused by administration of chemical substance, Gene No. 893 [2]: +; Behavior of gene caused by administration of chemical substance, Gene No. 6026 [2]: −; Behavior of gene caused by administration of chemical substance, Gene No. 154 [2]: +; Behavior of gene caused by administration of chemical substance, Gene No. 1993 [2]: +; Behavior of gene caused by administration of chemical substance, Gene No. 813 [2]: −; Behavior of gene caused by administration of chemical substance, Gene No. 2494 [2]: −; Behavior of gene caused by administration of chemical substance, Gene No. 2546 [2]: +; Behavior of gene caused by administration of chemical substance, Gene No. 3776 [2]: +; Behavior of gene caused by administration of chemical substance, Gene No. 3929 [2]: +; Behavior of gene caused by administration of chemical substance, Gene No. 1119 [2]: +; Behavior of gene caused by administration of chemical substance, Gene No. 6742 [2]: +; Behavior of gene caused by administration of chemical substance, Gene No. 5634 [2]: +; Behavior of gene caused by administration of chemical substance, Gene No. 5726 [2]: −
2 | O=C([O-])c1ccccc1.[Na+] [TS084, Sodium benzoate] | C− | Cr− | M− | − | − | − | + | − | + | − | − | + | − | − | + | − | − | − | − | − | Behavior of gene caused by administration of chemical substance, Gene No. 1131 [2]: −; Behavior of gene caused by administration of chemical substance, Gene No. 1562 [2]: −; Behavior of gene caused by administration of chemical substance, Gene No. 1741 [2]: −; Behavior of gene caused by administration of chemical substance, Gene No. 893 [2]: −; Behavior of gene caused by administration of chemical substance, Gene No. 6026 [2]: −; Behavior of gene caused by administration of chemical substance, Gene No. 154 [2]: −; Behavior of gene caused by administration of chemical substance, Gene No. 1993 [2]: −; Behavior of gene caused by administration of chemical substance, Gene No. 813 [2]: −; Behavior of gene caused by administration of chemical substance, Gene No. 2494 [2]: −; Behavior of gene caused by administration of chemical substance, Gene No. 2546 [2]: −; Behavior of gene caused by administration of chemical substance, Gene No. 3776 [2]: −; Behavior of gene caused by administration of chemical substance, Gene No. 3929 [2]: −; Behavior of gene caused by administration of chemical substance, Gene No. 1119 [2]: −; Behavior of gene caused by administration of chemical substance, Gene No. 6742 [2]: +; Behavior of gene caused by administration of chemical substance, Gene No. 5634 [2]: −; Behavior of gene caused by administration of chemical substance, Gene No. 5726 [2]: −
